Source: patent US20050282747A1, “Methods and compositions for wound healing” (The Research Foundation of State University of New York at …, priority 2003, published 2005)

How the values were obtained:
CF-31 fibroblasts = assay: Cell spreading on RGD-peptide coupled HA-DTPH/PEGDA hydrogel surface, CF-31; format: cell-based, human; conditions: for percentage of spreading cells / percentage of round cells: complete medium, 18 h post seeding
Experimental: (§1) Cell culture. Dermal fibroblasts from a person (CF-31) (Clonetics, San Diego) and NIH 3T3 fibroblast (ATCC) were routinely cultured in completed DMEM/F-12 medium supplied with 10% new-born calf serum (for NIH 3T3 fibroblast) or fetal bovine serum (for CF-31 fibroblast), 2 mM L-glutamine and 100 units/ml antibotic-antimycotic (GIBCO BRL, Life Technologies, Grand Island, N.Y.), and 50 μg/ml ascorbic acid (Sigma) at 37° C. in a humidified 5% CO2 incubator. Monolayers of fibroblasts in their growth phase (ca. 90% confluence) were dissociated with trypsin/1 mM EDTA in DPBS, centrifuged and resuspended in the serum free medium or complete medium.
Cell spreading on the RGD-peptides coupled HA-DTPH/PEGDA hydrogel surface. HA-DTPH/PEGDA hydrogels or hydrogel films in 24-well plate were rinsed with serum free medium or complete medium 3 times, and then CF-31 and NIH 3T3 fibroblasts were seeded on the surface of the hydrogel or hydrogel film surface at a density of 4×10^4/well. Then, 1 ml of serum free medium or complete medium was added into each well, and the cells were cultured at 37° C. in a humidified 5% CO2 incubator. At 2, 4, 8 and 18 h post seeding, 0.4 ml of 10% formalin solution (Sigma) was added into each well to fix cell for 15 min. The cells were then stained at room temperature with 0.1% crystal violet in 200 mM boric acid (pH 8.0) for 15 minutes. Photomicrographs of the cytoplasmic-stained cells were taken a 100×total magnification using an inverted Nikon microscope with a CCD camera on a minimum of five random fields per well (n=3 per composition). The bundled Spot 3.0 software (Diagnostic Instruments, Sterling Heights, MI) was used to classify the cell morphology into 3 categories viz. round, partially spread or fully spread as reported by Neff etc[47]. It was defined that cells with surface area <2000 pixels^2 were completely round, 2000 pixels^2 <cells with area <8000 pixels^2 had few cytoplasmic extensions although they maintained a somewhat round appearance, and cells with surface areas >8000 pixels^2 were fully spreading and had multiple cytoplasmic extensions in various directions.

NIH 3T3 fibroblasts [1] = assay: Cell proliferation on the RGD-peptide coupled HA-DTPH/PEGDA hydrogel surface (MTS assay); format: cell-based; conditions: PEGDA 3400; for proliferation of NIH 3T3 fibroblasts on surface: in 24 h, peptide concentration in bulk 0.268 mM
Experimental: Cell proliferation on the RGD-peptide coupled HA-DTPH/PEGDA hydrogel surface. Peptide-coupled HA-DTPH/PEGDA hydrogels or hydrogel films in 24-well plates were rinsed 3 times with complete medium, and then CF-31 and NIH 3T3 fibroblasts were seeded on the surface of the hydrogel or hydrogel film surface at a density of 1×10^4/well. After that 1 ml of complete medium was added into each well, and the cells were cultured at 37° C. in a humidified 5% CO2 incubator and the medium was changed daily. At different time points (day 1, 2, 3 and 4), the cell number was determined by MTS assay (Cell-Titer 96 Proliferation Kit, Promega, Madison, Wis.) as previously described Shu, et al., Biomacromolecules 3:1304, 2002; Ren and Tang, Anticancer Res. 19:403, 1999) and the absorption recorded at 550 nm with an OPTI Max microplate reader (Molecular Devices). Cell numbers were obtained using standard curves generated from the assay.

NIH 3T3 fibroblasts [2] = assay: Cell proliferation inside the RGD-peptide coupled HA-DTPH/PEGDA hydrogel (MTT assay, F-DA/PI staining); format: cell-based; conditions: NIH 3T3 encapsulated at 1×10^6/ml; day 15 compared to day 1
Experimental: Cell proliferation inside the RGD-peptide coupled HA-DTPH/PEGDA hydrogel. NIH 3T3 fibroblasts were suspended in 1.25% (w/v) HA-DTPH solution in complete medium (pH 7.4) at a density of 1×10^6/ml, and then 1 ml of stock peptide-coupled PEGDA or blank PEGDA solution (see hydrogel preparation) was added into 4 ml of cell/HA-DTPH mixture solution. After mixed, 200 μl of the mixture of HA-DTPH/PEG-diacrylate/T31 fibroblasts was injected into each well of 24-well plates. After 1 h, 1.0 ml of complete medium was added into each well and incubated in 37° C. 5% CO2 incubator. The medium was changed every day without damaging the hydrogel. The viability of NIH 3T3 fibroblast inside hydrogel following 1, 5 and 15 d in vitro culture was determined by a double-staining procedure (Saha, et al., Dev. Comp. Immunol. 27:351, 2003) using fluorescein diacetate (F-DA) and propidium iodide (PI). Briefly, cell-hydrogel constructs were rinsed twice with DPBS buffer, stained with F-DA (0.02 mg/ml)(Molecular Probes, Eugene, Oreg.) and PI (0.2 μg/ml)(Sigma) at room temperature for 3 min, rinsed twice with DPBS buffer, stored on ice, and observed under confocal microscope (Zeiss Axioplan 2 Imaging System, LSM 5 Pa).
The cell proliferation inside hydrogel following in vitro culture of day 1, 5, 10 and 15 was determined by MTT (3-[4,5-dimethylthiazol-2-yl]-2,5-diphenyltetrazolium bromide) assay (Sigma). A 1% MTT in serum-free media solution was added to each well containing the cell-hydrogel construct. Active mitochondria metabolize the tetrazolium salt to form an insoluble formazin dye. After 8 h of incubation, the constructs were placed in 10 ml glass vials and 2 ml 0.04 N HCl in isopropanol was added to extract the formazin. The absorbance was recorded at 550 nm with an OPTI Max microplate reader (Molecular Devices) and was converted into a cell number based on standard curves.

NIH 3T3 fibroblasts [3] = assay: Cell spreading on RGD-peptide coupled HA-DTPH/PEGDA hydrogel surface, NIH 3T3; format: cell-based
Experimental: as §1
Cell spreading on the RGD-peptides coupled HA-DTPH/PEGDA hydrogel surface. HA-DTPH/PEGDA hydrogels or hydrogel films in 24-well plate were rinsed with serum free medium or complete medium 3 times, and then CF-31 and NIH 3T3 fibroblasts were seeded on the surface of the hydrogel or hydrogel film surface at a density of 4×10^4/well. Then, 1 ml of serum free medium or complete medium was added into each well, and the cells were cultured at 37° C. in a humidified 5% CO2 incubator. At 2, 4, 8 and 18 h post seeding, 0.4 ml of 10% formalin solution (Sigma) was added into each well to fix cell for 15 min. The cells were then stained at room temperature with 0.1% crystal violet in 200 mM boric acid (pH 8.0) for 15 minutes. […]

NIH 3T3 fibroblasts [4] = assay: Injectable fibrous tissue regeneration in nude mouse, histology and procollagen immunohistochemistry; format: in vivo, nude mice
Experimental: RGD-peptide coupled HA-DTPH/PEGDA hydrogel for injectable fibrous tissue regeneration in nude mouse. Animal experiments were carried out according to NIH guidelines for the care and use of laboratory animals (NIH publication #85-23 rev. 1985). Male nude mice (n=12) (Simonsen Laboratories Inc., Gilroy, Calif.), 4-6 weeks old were anesthetized with 2.5% isoflurane using a VetEquip inhalation anesthesia system (Pleasanton, Calif.). NIH 3T3 fibroblasts were suspended in 1.25% (w/v) HA-DTPH solution in complete medium (pH 7.4) at a density of 50×10^6 cell/ml, and then 1 ml stock CRGDS-coupled PEGDA (peptide concentration 10/100) or blank PEGDA (see 2.4 hydrogel preparation) was added into 4 ml cell/HA-DTPH mixture solution and mixed. Each nude mouse received four 300 μl s.c. dorsal injections by means of an 18-gauge needle under the dorsal panniculus camosus (two 300 μl solution with cells and two 300 μl solution without cells as control). At each time point (4 and 8 weeks after implantation), two nude mice were sacrificed, and the implants with the surrounding tissues were removed from the mouse, fixed in 10% buffered formalin solution (Sigma) for 24 h, embedded in paraffin, cut into 5-μm sections, and mounted onto slides.
Histological and immunohistochemical staining. […]

[5] = peptide concentration in bulk 0.0054 mM
[6] = peptide concentration in bulk 0.0268 mM
[7] = peptide concentration in bulk 0.134 mM
[8] = peptide concentration in bulk 0.268 mM
[9] = PEG spacer molecular weight 3400, peptide concentration in bulk 0.268 mM

Substance | percentage of spreading cells (CF-31 fibroblasts; [5]) | percentage of spreading cells (CF-31 fibroblasts; [6]) | percentage of spreading cells (CF-31 fibroblasts; [7]) | percentage of spreading cells (CF-31 fibroblasts; [8]) | proliferation of NIH 3T3 fibroblasts on surface (NIH 3T3 fibroblasts [1]) | cell proliferation inside the hydrogel (NIH 3T3 fibroblasts [2]) | cell attachment and spreading (CF-31 fibroblasts; CF-31, serum free medium) | cell morphology on hydrogel surface (NIH 3T3 fibroblasts [3]; 4 and 8 h post-seeding) | round cell percent (CF-31 fibroblasts; PEG spacer molecular weight 700, peptide concentration in bulk 0.268 mM) | round cell percent (CF-31 fibroblasts; [9]) | spreading percent of CF-31 fibroblast (CF-31 fibroblasts; [9]) | percentage of round cells (CF-31 fibroblasts; [5]) | percentage of round cells (CF-31 fibroblasts; [8]) | cell area (NIH 3T3 fibroblasts [3]; at 4 and 8 h) | cell density relative to cell culture polystyrene control (NIH 3T3 fibroblasts [1]; hydrogel film surface, 4 days culture, CRGDS concentration in bulk 0.268 mM) | fibrous tissue and procollagen versus hydrogel lacking the peptide (NIH 3T3 fibroblasts [4]; cell-seeded hydrogel, 4 weeks post-injection) | signs of biological incompatibility (necrosis or damage to the surrounding tissues) (NIH 3T3 fibroblasts [4]; s.c. injection in nude mice, gel formed in vivo)
CCRGDS | 8.3% | 12.4% | 36.8% | 46.5% | 1.50 fold | 253% | – | – | – | – | – | – | – | – | – | – | –
CRDGS [reference compound] | – | – | – | – | no spreading or proliferation was observed | 245% | failed to promote cell spreading | the cells were rounded | – | – | – | – | – | – | – | – | –
CRGDS | 19.1% | 31.3% | 48.2% | 53.0% | 1.64 fold | 253% | – | – | 75.6% | 9.4% | 53% | 51.2% | 18% | larger than that for CCRGDS | ca. 80% | More uniform fibrous tissue and procollagen | No signs of biological incompatibility
